Source: US20240133884A1, “COMPOSITIONS AND METHODS FOR DETECTING TRYPANOSOMA CRUZI INFECTION” (University of Georgia Research Foundation, Inc., priority 2022, published 2024)

Assays:
[1] = system: T. cruzi mRNA; assay: RNA-Seq of infected Vero cells: parasite mRNA relative to host cell mRNA; format: cell-based, Trypanosoma cruzi; conditions: as early as 6 hrs after addition (FIG. 5C)
Procedure: Vero cells (10^6) were infected with 10^7 CL strain trypomastigotes of T. cruzi for 2 days before treating with either 5 uM benznidazole or 30 nM AN14353. The drug concentration used for treatment was set at 5 times the IC50. Samples were collected at several time points for RNA extraction as previously described (Minning, et al., BMC genomics 10, 370 (2009)). rRNA-depleted RNA library construction and RNA sequencing using Illumina Nextseq 75PE was carried out by Georgia Genomics and Bioinformatics Core (GGBC, University of Georgia, Georgia). Illumina reads with mean quality lower than 30 (Phred Score based) were removed from analysis, then mapped to CL Brener genome (TritrypDB release-33) and African green monkey genome (Osada, et al., DNA Res 21, 673-683 (2014)) using the HiSAT software package v0.1.6^50 with default parameters. The mapping rate was quantified by HTseq v0.6.1 (Anders, et al., Bioinformatics 31, 166-169 (2015)).

[2] = system: T. cruzi (Brazil strain); assay: In vivo killing time assay: mouse footpads, Luciferase-expressing T. cruzi; set-up: species or system Trypanosoma cruzi; conditions: mice, single oral dose 25 mg/kg (FIG. 1C)
Procedure: Cure assays: Male or female C57BL/6 mice were intraperitoneally infected with 10^4 trypomastigotes of the Brazil strain. Mouse infection was confirmed at 25-30 dpi by detection of CD8^+ T cells specific against the T. cruzi TSKb20 peptide in blood (Martin, et al., PLoS pathogens 2, e77 (2006)). Compounds resuspended in 1% carboxymethyl cellulose and 0.1% Tween 80, were administered daily by gavage at the specified concentrations. In order to optimally detect persistent infection, immune responses in the mice were suppressed by intraperitoneal injection of four doses of cyclophosphamide every 2-3 days (200 mg/kg/day), beginning one week after the end of therapeutic treatment. At the end of the immunosuppression regimen, peripheral blood was checked under light microscope for parasites and cultured in LDNT media (Bustamante, et al., The Journal of infectious diseases 209, 150-162 (2014)). […] In vivo killing time assays: C57BL/6 mice were infected with 2.5×10^5 Luciferase-expressing T. cruzi (Brazil strain) in the foot pads, and two days later one oral dose of AN14353 (25 mg/kg) was administered. The bioluminescent signal in the feet after i.p. injection of D-luciferin (PerkinElmer; 250 mg/kg) was measured in a Lumina II IVIS imager (PerkinElmer). […]

[3] = system: CPSF3; assay: Resistance of CPSF3 overexpression line and CPSF3 mutant (intracellular amastigotes); format: cell-based, Trypanosoma cruzi
Procedure: The in vitro anti-T. cruzi amastiogote activity assay was performed and optimized based on the protocol described previously (Canavaci, et al., PLoS neglected tropical diseases 4, e740 (2010)). The change in tdTomato fluorescence intensity was determined as a measurement of growth over 72 hours of culture. For assaying drug effects on extracellular amastigotes, trypomastigotes were collected from infected Vero cell cultures and converted in acidic media as previously described (Tomlinson, et al., Parasitology 110 (Pt 5), 547-554 (1995)). Amastigotes (50,000/well) were incubated with 2-fold serial dilutions of compounds for 48 hours. The ATP production was used as an indication of growth in this case, and was measured by ATPlite Luminescence ATP Detection Assay System (PerkinElmer). Both fluorescence and luminescence were read using a BioTek Synergy Hybrid Multi-Mode reader equipped with the software Gene5 v 2.0 (BioTek). The dose-response curve was generated by […] analysis with GraphPad Prism v9.4.0 (GraphPad Software). IC50 was determined as the drug concentration that was required to inhibit 50% of growth compared to that of parasites with no drug exposure. […]

## Cc1c(C(=O)N[C@H](C(=O)OCc2ccc(F)c(F)c2)C(C)C)ccc2c1B(O)OC2 [AN14353]
[1]
  parasite mRNA in T. cruzi-infected host cells: marked and continuing reduction in parasite mRNA
[2]
  in vivo trypanocidal activity (bioluminescence of feet over 72 hrs): rapid in vivo trypanocidal activity

## Cc1c(C(=O)N[C@H](C(=O)OCC2CCOCC2)C(C)C)ccc2c1B(O)OC2 [AN15368]
[3]; intracellular amastigotes
  increase in resistance on overexpression of CPSF3: 3-5 fold
[3]; intracellular amastigotes (FIG. 5D)
  effect of CPSF3 Asn232 to His mutation: conferred resistance
